{"source": "patent US20140105862A1", "about": "“STREPTOMYCES MICROFLAVUS STRAINS AND METHODS OF THEIR USE TO CONTROL PLANT DISEASES AND PESTS” (priority 2012, published 2014)", "origin": "cited, not measured here", "key": {"powdery mildew": {"system": "powdery mildew", "details": "according to GB 1 507 193"}, "[1]": {"system": "parasites on animals, such as pin worm", "details": "according to U.S. Pat. No. 3,849,398"}, "[2]": {"system": "gram-positive, gram-negative bacteria and tubercule bacillus", "details": "according to U.S. Pat. No. 3,849,398"}}}
{"smiles": "NC(N)=NCC(O)CC(O)(C(=O)O)[C@H]1O[C@@H](n2cc(CO)c(N)nc2=O)C=C[C@@H]1NC(=O)[C@@H](N)CO", "note": "(stereo partly drawn) [Strain B-98891]", "values": [{"measurement": "antifungal activity", "setting": "powdery mildew", "value": "antifungal activity"}]}
{"smiles": "CNCC(=O)NC(CO)C(=O)NC1C(C(N)=O)OC(n2ccc(N)nc2=O)C(O)C1O", "note": "(stereo not drawn) [gougerotin]", "values": [{"measurement": "parasiticidal action", "setting": "[1]", "value": "parasiticidal action"}, {"measurement": "antibacterial activity", "setting": "[2]", "value": "weak antibacterial activity"}]}
